What was measured:
HIV-1 AD8 = assay: Single-round pseudovirus infection inhibition (luciferase), AD8 Env; type: cell-based; settings: Cf2Th target cells expressing CD4 and CCR5
Method: (§1) Cell lines. 293T cells were grown in Dulbecco's modified Eagle's medium (DMEM) (Life Technologies, Wisent Inc.) supplemented with 10% fetal bovine serum (FBS) (Life Technologies, VWR) and 100 µg/ml of penicillin-streptomycin (Life Technologies, Wisent Inc.). Cf2Th cells stably expressing the human CD4 and CCR5 coreceptors for HIV-1 were grown in the same medium supplemented with 0.4 mg/ml of G418 and 0.2 mg/ml of hygromycin.
(§2) CD4-mimetic compound. The compounds of the disclosure (CD4mc) were dissolved in dimethyl sulfoxide (DMSO) at a stock concentration of 10 mM and diluted to the appropriate concentration for antiviral assays.
(§3) Production of recombinant pseudoviruses expressing luciferase. 293T cells were transfected with pSVIIIenv plasmids expressing Env from HIV-1 strain variants, the pCMVΔP1Δenv HIV-1 Gag-Pol packaging construct and the firefly luciferase-expressing HIV-1 vector at a 1:1:3 μg DNA ratio using effectene transfection reagent (Qiagen). […]
(§4) Virus infectivity and inhibition. […] Forty-eight h later, the target cells were lysed and the luciferase activity was measured.
(§5) For inhibition assays, the compounds to be tested were incubated at various concentrations with recombinant pseudoviruses for 1 h at 37° C. […] Forty-eight hours later, the target cells were lysed and the luciferase activity was measured. […]

HIVJR-FL-infected cells = assay: ADCC killing of HIVJR-FL-infected cells; type: cell-based, HIV-1
Excerpt: (§6) The ability of the compounds of the disclosure to enhance Ab recognition of Env on the surface of infected cells and mediate ADCC was examined. Via HIV+ plasma binding, it was observed that CJF-III-192 was able to enhance Ab recognition to a greater degree than BNM-III-170 (7-fold vs 2-fold enhancement vs DMSO) for JR-FL infected primary T-cells. Additionally, when comparing the % ADCC activity of these two compounds, it was observed that CJF-III-192 could achieve up to 8% killing of HIVJR-FL-infected cells, while BNM-III-170 could only attain levels up to 5%. This effect on ADCC activity was more pronounced with HIVCH58TF-infected cells; 18% killing for CJF-III-192 vs. 8% killing with […].

HIVCH58TF-infected cells = assay: ADCC killing of HIVCH58TF-infected cells; type: cell-based, HIV-1
Excerpt: as §6

[1] = test system: Env on JR-FL infected primary T-cells; assay: HIV+ plasma binding (Ab recognition of Env on infected cells); type: cell-based, HIV-1
Excerpt: as §6

[2] = test system: mutant HIV-1AD8 batches 130_3 and 130_C; assay: Entry inhibition of CD4mc resistant AD8 variants; type: cell-based; settings: up to 300 μM
Method: CD4mc resistant variants of Clade B virus AD8 were also selected by incubating infected host cells with increasing concentrations of BNM-III-170. […] These resistant strains of AD8 were sequenced to find specific mutations in the gp120 monomer that conferred the greatest resistance to BNM-III-170. Of these mutations examined, E64G, S375N, and I424T conferred the greatest resistance to treatment with compounds of the disclosure.
Each of the mutations individually were able to increase resistance to BNM-III-170, but were most resistant when combined as in HIV-1AD8 isolates 130_3 and 130_C. […] This was true with the individual mutations discussed above, as well as the original resistant mutants 130_3 and 130_C.

HIV-1 JR-FL = assay: Single-round pseudovirus infection inhibition (luciferase), JR-FL Env; type: cell-based; settings: Cf2Th target cells expressing CD4 and CCR5
Method: as §1, §2, §3, §4, §5

BG505, cladeA HIV-1 = assay: Single-round pseudovirus infection inhibition (luciferase), BG505 Env; type: cell-based; settings: Cf2Th target cells expressing CD4 and CCR5
Method: as §1, §2, §3, §4, §5

SMILES: CNCc1ccc2c(c1)C[C@H](CN=C(N)N)[C@H]2NC(=O)C(=O)Nc1ccc(Cl)c(F)c1.O=C(O)C(F)(F)F.O=C(O)C(F)(F)F [BNM-III-170]
- IC50 (HIV-1 AD8): 1700 nM
- % ADCC activity (killing) (HIVJR-FL-infected cells): up to 5%
- % ADCC activity (killing) (HIVCH58TF-infected cells): 8%
- enhancement of Ab recognition vs DMSO [1]: 2 fold
- entry inhibition of resistant mutants [2]: completely resistant
- IC50 (HIV-1 JR-FL): 12.2 µM
- IC50 (BG505, cladeA HIV-1): > 300 µM

Reference: patent US20260265194A1, “COMPOUNDS FOR THE TREATMENT OF HIV” (THE TRUSTEES OF THE UNIVERSITY OF PENNSYLVANIA, priority 2022, published 2026)
